Data on 31 molecules can be found in US9399626B2, “2-thiopyrimidinones” (Pfizer Inc., priority 2011, dated 2016).

Structures can show the parent of a compound that is named as a salt.

For the first test, the target named is T1, MPO (purified from human polynuclear leukocytes) (Homo sapiens, UniProt P05164).
T1 construct: purified from human polynuclear leukocytes; purchased Calbiochem/EMD Biosciences; host or cells: human polynuclear leukocytes (natural source)
T1 sequence (P05164 279-745 limits assumed): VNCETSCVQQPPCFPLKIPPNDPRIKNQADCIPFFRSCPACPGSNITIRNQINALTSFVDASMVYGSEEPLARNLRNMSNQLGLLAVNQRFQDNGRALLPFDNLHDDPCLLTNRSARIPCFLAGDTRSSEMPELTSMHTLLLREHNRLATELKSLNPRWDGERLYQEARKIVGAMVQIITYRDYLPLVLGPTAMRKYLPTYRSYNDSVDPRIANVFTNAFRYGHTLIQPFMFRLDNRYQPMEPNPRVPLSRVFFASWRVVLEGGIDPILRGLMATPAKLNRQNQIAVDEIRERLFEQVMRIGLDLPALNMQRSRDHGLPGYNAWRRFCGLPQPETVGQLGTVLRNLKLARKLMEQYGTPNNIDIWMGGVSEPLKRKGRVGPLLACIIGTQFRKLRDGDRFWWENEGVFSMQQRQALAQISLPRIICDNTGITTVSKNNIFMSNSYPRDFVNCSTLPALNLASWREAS
T1 sequence (P05164 165-273 limits assumed): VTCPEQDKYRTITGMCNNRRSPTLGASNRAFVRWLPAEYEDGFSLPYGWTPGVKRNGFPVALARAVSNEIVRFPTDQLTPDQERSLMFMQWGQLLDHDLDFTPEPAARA
Description: MPO Amplex Red Activity Assay. In kind it is biochemical. The note with it: Table 1, 2 μM H2O2, pH 7.4. The protocol:
MPO Amplex Red Activity Assay.
MPO peroxidase activity was measured by monitoring the formation of resorufin generated from the oxidation of Amplex Red (10-Acetyl-3,7-dihydroxyphenoxazine) (Invitrogen, Carlsbad, Calif.) by MPO (Gomes, Fernandes et al. 2005). Assay mixtures (100 μL total volume) contained 50 mM NaPi pH 7.4, 150 mM NaCl, 1 mM DTPA (diethylenetriaminepentaacetic acid), 2% DMSO, 2 μM H2O2, 30 μM Amplex Red and the reaction was initiated by the addition of […] (purified from human polynuclear leukocytes and purchased from Calbiochem/EMD Biosciences, Gibbstown, N.J.). All assays were performed in 96-well, half-area, black, nonbinding surface, polystyrene plates (Corning) and the production of resorufin (excitation 530 nm, emission 580 nm) was monitored every 20 sec on a Spectramax M2 Microplate Spectrophotometer (Molecular Devices, Palo Alto, Calif.) equipped with Softmax Pro software (Molecular Devices, Palo Alto, Calif.). Reactions to determine the background reaction rate consisted of all assay components and 4 μL of 500 unit/mL bovine catalase (Sigma) in 50 mM KPi pH 7.0. The background rate was subtracted from each reaction progress curve. All data was analyzed using non-linear regression analysis in Microsoft Excel and Kaleidagraph (Synergy Software).
To determine inhibitor potency (kinact/KI) against MPO, the first 600 sec of the reaction progress curves were fit to equation 1, where Vo is the initial rate in RFU/sec and t is time in seconds, to obtain the first order rate constant for enzyme inactivation (kobs) at each inhibitor concentration.
[formula] Equation 1 is a variation of the standard equation for slow binding inhibition where the steady state velocity (Vs) is set to zero. Each kobs value was corrected for auto-inactivation of the enzyme by subtracting the kobs value for the uninhibited reaction. The corrected kobs values were then plotted versus inhibitor concentration ([I]) and fit to equation 2
[formula] where kinact is the maximal rate of inactivation and KI is the inhibitor concentration that yields half the rate of maximal inactivation (Copeland 2005).
Table 1 and (1A) below provides the myeloperoxidase inhibitory activity for the Examples below in accordance with the above-described assay.
`COc1ccc(Cl)cc1-c1cc(=O)[nH]c(=S)n1CCNC(=O)CN` [Example 135, N-{2-[6-(5-chloro-2-methoxyphenyl)-4-oxo-2-thioxo-3,4-dihydropyrimidin-1(2H)-yl]ethyl} glycinamide hydrochloride]: the “MPO kinact/Ki” value is reported as 6750 1/s per M. As for `COCCn1c(-c2c(OC)cccc2OC)cc(=O)[nH]c1=S` [Example 180, 6-(2,6-dimethoxyphenyl)-1-(2-methoxyethyl)-2-thioxo-2,3-dihydropyrimidin-4(1H)-one], the “MPO kinact/Ki” value is 6960 1/s per M. `COc1ccc(-c2cc(=O)[nH]c(=S)n2CCC(=O)O)c(OC)c1` [Example 193, 3-[6-(2,4-dimethoxyphenyl)-4-oxo-2-thioxo-3,4-dihydropyrimidin-1(2H)-yl]propanoic acid]: the “MPO kinact/Ki” value is 458 1/s per M.

In the case of `NCCCn1c(-c2ccccc2OCCO)cc(=O)[nH]c1=S` [Example 88, 1-(3-aminopropyl)-6-[2-(2-hydroxyethoxy)phenyl]-2-thioxo-2,3-dihydropyrimidin-4(1H)-one hydrochloride], the “MPO kinact/Ki” value is listed as 898 1/s per M. As for `COc1cc(OC)c(-c2cc(=O)[nH]c(=S)n2CCCN)cc1F` [Example 108, 1-(3-aminopropyl)-6-(5-fluoro-2,4-dimethoxyphenyl)-2-thioxo-2,3-dihydropyrimidin-4(1H)-one hydrochloride], the “MPO kinact/Ki” value is listed as 5800 1/s per M. For `COc1ccc(-c2cc(=O)[nH]c(=S)n2CCNc2ncc[nH]2)c(OC)c1` [Example 249, 6-(2,4-dimethoxyphenyl)-1-[2-(1H-imidazol-2-ylamino)ethyl]-2-thioxo-2,3-dihydropyrimidin-4(1H)-one], the “MPO kinact/Ki” value was 1050 1/s per M. Turning to `NCCn1c(-c2cccc3ccoc23)cc(=O)[nH]c1=S` [Example 143, 1-(2-aminoethyl)-6-(1-benzofuran-7-yl)-2-thioxo-2,3-dihydropyrimidin-4(1H)-one hydrochloride], the “MPO kinact/Ki” value is 8110 1/s per M. `COc1ccc(-c2cc(=O)[nH]c(=S)n2CCN=C(N)N)c(OC)c1` [Example 7, 2-(2-(6-(2,4-dimethoxyphenyl)-4-oxo-2-thioxo-3,4-dihydropyrimidin-1(2H)-yl)ethyl)guanidine]: the “MPO kinact/Ki” value is 10900 1/s per M. As to `COCCn1c(-c2cccc3ccoc23)cc(=O)[nH]c1=S` [Example 307, 6-(1-benzofuran-7-yl)-1-(2-methoxyethyl)-2-thioxo-2,3-dihydropyrimidin-4(1H)-one], the “MPO kinact/Ki” value is recorded as 14400 1/s per M. In the case of `COCCn1c(-c2cc3ccccc3n2C)cc(=O)[nH]c1=S` [Example 66, 1-(2-methoxyethyl)-6-(1-methyl-1H-indol-2-yl)-2-thioxo-2,3-dihydropyrimidin-4(1H)-one], the “MPO kinact/Ki” value is reported as 1580 1/s per M. Turning to `COc1ccc(-c2cc(=O)[nH]c(=S)n2CCNC(C)=O)c(OC)c1` [Example 215, N-{2-[6-(2,4-dimethoxyphenyl)-4-oxo-2-thioxo-3,4-dihydropyrimidin-1(2H)-yl]ethyl}acetamide], the “MPO kinact/Ki” value is on record as 1920 1/s per M.

As to `CNC(=O)CCn1c(-c2ccc(OC)cc2OC)cc(=O)[nH]c1=S` [Example 216, 3-[6-(2,4-dimethoxyphenyl)-4-oxo-2-thioxo-3,4-dihydropyrimidin-1(2H)-yl]-N-methylpropanamide], the “MPO kinact/Ki” value was 3260 1/s per M. Turning to `COc1cc(OC)c(-c2cc(=O)[nH]c(=S)n2CCO)cc1F` [Example 184, 6-(5-fluoro-2,4-dimethoxyphenyl)-1-(2-hydroxyethyl)-2-thioxo-2,3-dihydropyrimidin-4(1H)-one], the “MPO kinact/Ki” value was 5970 1/s per M. Regarding `CNCCn1c(-c2ccc(OC)cc2OC)cc(=O)[nH]c1=S` [Example 177, 6-(2,4-dimethoxyphenyl)-1-[2-(methylamino)ethyl]-2-thioxo-2,3-dihydropyrimidin-4(1H)-one formate], the “MPO kinact/Ki” value is given as 5130 1/s per M. For the molecule `COCCn1c(-c2cncnc2)cc(=O)[nH]c1=S` [Example 280, 3-(2-methoxyethyl)-2-thioxo-2,3-dihydro-4,5′-bipyrimidin-6(1H)-one], the “MPO kinact/Ki” value is listed as 430 1/s per M.

As for `COc1ccc(-c2cc(=O)[nH]c(=S)n2CCCCN)c(OC)c1` [Example 191, 1-(4-aminobutyl)-6-(2,4-dimethoxyphenyl)-2-thioxo-2,3-dihydropyrimidin-4(1H)-one hydrochloride], the “MPO kinact/Ki” value is given as 14100 1/s per M. Same read-out and setting: under `COCCn1c(-c2ccccn2)cc(=O)[nH]c1=S` [Example 10, 1-(2-Methoxyethyl)-6-(pyridin-2-yl)-2-thioxo-2,3-dihydropyrimidin-4(1H)-one] stands 619 1/s per M; under `COCCn1c(-c2ccccc2SC)cc(=O)[nH]c1=S` [Example 55, 1-(2-methoxyethyl)-6-[2-(methylthio)phenyl]-2-thioxo-2,3-dihydropyrimidin-4(1H)-one], 7740 1/s per M; under `COCCn1c(-c2cccc3c2OCC3)cc(=O)[nH]c1=S` [Example 41, 6-(2,3-dihydro-1-benzofuran-7-yl)-1-(2-methoxyethyl)-2-thioxo-2,3-dihydropyrimidin-4(1H)-one], 5000 1/s per M. With `COc1ccc(F)cc1-c1cc(=O)[nH]c(=S)n1CCCN=C(N)N` [Example 126, 2-{3-[6-(5-fluoro-2-methoxyphenyl)-4-oxo-2-thioxo-3,4-dihydropyrimidin-1(2H)-yl]propyl} guanidine], the “MPO kinact/Ki” value is 18200 1/s per M. Turning to `CNC(=O)c1cccc(-c2cc(=O)[nH]c(=S)n2CCOC)c1` [Example 325, 3-[3-(2-methoxyethyl)-6-oxo-2-thieno-1,2,3,6-tetrahydropyrimidin-4-yl]-N-methylbenzamide], the “MPO kinact/Ki” value is on record as 1160 1/s per M. Regarding `COCCn1c(-c2cccc3ncsc23)cc(=O)[nH]c1=S` [Example 78, 6-(1,3-benzothiazol-7-yl)-1-(2-methoxyethyl)-2-thioxo-2,3-dihydropyrimidin-4(1H)-one], the “MPO kinact/Ki” value is recorded as 9730 1/s per M. `COc1ccc(-c2cc(=O)[nH]c(=S)n2CC(C)O)c(OC)c1` (stereo not shown) [Example 179, 6-(2,4-dimethoxyphenyl)-1-(2-hydroxypropyl)-2-thioxo-2,3-dihydropyrimidin-4(1H)-one]: the “MPO kinact/Ki” value is on record as 2790 1/s per M. As for `COc1ncc(C)cc1-c1cc(=O)[nH]c(=S)n1CCCN` [Example 45, 1-(3-aminopropyl)-6-(2-methoxy-5-methylpyridin-3-yl)-2-thioxo-2,3-dihydropyrimidin-4(1H)-one trifluoroacetate], the “MPO kinact/Ki” value is 4000 1/s per M. On to `COCCn1c(-c2c[nH]c3ncccc23)cc(=O)[nH]c1=S` [Example 35, 1-(2-methoxyethyl)-6-(1H-pyrrolo[2,3-b]pyridin-3-yl)-2-thioxo-2,3-dihydropyrimidin-4(1H)-one], for which the “MPO kinact/Ki” value was 4110 1/s per M. With `COCCn1c(-c2ccc(C(=O)N(C)C)cc2)cc(=O)[nH]c1=S` [Example 336, 4-[3-(2-methoxyethyl)-6-oxo-2-thioxo-1,2,3,6-tetrahydropyrimidin-4-yl]-N,N-dimethylbenzamide], the “MPO kinact/Ki” value is given as 589 1/s per M.

The test is the same for the next values; noted with them: Table 1A, 2 μM H2O2, pH 7.4.
In the case of `COc1cccc(-c2cc(=O)[nH]c(=S)n2CC(N)=O)c1` [Example 384, 2-[6-(3-methoxyphenyl)-4-oxo-2-thioxo-3,4-dihydropyrimidin-1(2H)-yl]acetamide], the “MPO kinact/Ki” value was 2930 1/s per M. Still for that read-out and setting: next, `COc1ccc(-c2cc(=O)[nH]c(=S)n2CC(=O)N[C@H]2CC[C@@H]2N)c(OC)c1` [Example 439, N-[(1S,2S)-2-aminocyclobutyl]-2-[6-(2,4-dimethoxyphenyl)-4-oxo-2-thioxo-3,4-dihydropyrimidin-1(2H)-yl]acetamide]: 9200 1/s per M; `COc1cc(OCCO)ccc1-c1cc(=O)[nH]c(=S)n1CC(N)=O` [Example 387, 2-{6-[4-(2-hydroxyethoxy)-2-methoxyphenyl]-4-oxo-2-thioxo-3,4-dihydropyrimidin-1(2H)-yl}acetamide]: 4720 1/s per M; `COc1ccc(-c2cc(=O)[nH]c(=S)n2CC(F)(F)CN=C(N)N)c(OC)c1` [Example 453, 2-{3-[6-(2,4-dimethoxyphenyl)-4-oxo-2-thioxo-3,4-dihydropyrimidin-1(2H)-yl]-2,2-difluoropropyl}guanidine]: 27800 1/s per M. Take `COc1ccc(-c2cc(=O)[nH]c(=S)n2CC(=O)NC[C@@H](C)N)c(OC)c1` [Example 395, N-[(2R)-2-aminopropyl]-2-[6-(2,4-dimethoxyphenyl)-4-oxo-2-thioxo-3,4-dihydropyrimidin-1(2H)-yl]acetamide]: the “MPO kinact/Ki” value is 6980 1/s per M.
